The subject of series [1] is nausea and vomiting associated with administration of the test drug. Put plainly: Working Example 2: prescriptions for nausea and vomiting associated with administration of the test drug. The conditions noted are these: given before test drug.
From the text: The administration period and efficacy of various drugs to treat nausea and vomiting associated with administration of the test drug were studied.
For series [2] the following is noted: PTH 20 μg/day; blood samples 4 to 6 hours after administration; cited from earlier work.
Series [3] deals with patients having prednisone-induced osteoporosis complicated by arthralgia. The following applies: daily administration; cited from earlier work.

As for `O=c1[nH]c2ccccc2n1CCCN1CCC(n2c(=O)[nH]c3cc(Cl)ccc32)CC1` [Nauzelin, domperidone], the Effective or ineffective result in series [1] (event: nausea) and in series [1] (event: vomiting) was “Effective” in each case.

As for “PTH: PTH (parathyroid hormone) preparation given daily (20 μg/day) in cited osteoporosis trials”, in series [2], the Patients with hypercalcemia was 11% and the “Patients with persistent hypercalcemia” value is listed as 3%.

Regarding `CC[C@H](C)[C@H](NC(=O)[C@H](CCC(=O)O)NC(=O)[C@H](CO)NC(=O)[C@@H](NC(=O)[C@@H](N)CO)C(C)C)C(=O)N[C@@H](CCC(N)=O)C(=O)N[C@@H](CC(C)C)C(=O)N[C@@H](CCSC)C(=O)N[C@@H](Cc1cnc[nH]1)C(=O)N[C@@H](CC(N)=O)C(=O)N[C@@H](CC(C)C)C(=O)NCC(=O)N[C@@H](CCCCN)C(=O)N[C@@H](Cc1cnc[nH]1)C(=O)N[C@@H](CC(C)C)C(=O)N[C@@H](CC(N)=O)C(=O)N[C@@H](CO)C(=O)N[C@@H](CCSC)C(=O)N[C@@H](CCC(=O)O)C(=O)N[C@@H](CCCN=C(N)N)C(=O)N[C@H](C(=O)N[C@@H](CCC(=O)O)C(=O)N[C@@H](Cc1c[nH]c2ccccc12)C(=O)N[C@@H](CC(C)C)C(=O)N[C@@H](CCCN=C(N)N)C(=O)N[C@@H](CCCCN)C(=O)N[C@@H](CCCCN)C(=O)N[C@@H](CC(C)C)C(=O)N[C@@H](CCC(N)=O)C(=O)N[C@@H](CC(=O)O)C(=O)N[C@H](C(=O)N[C@@H](Cc1cnc[nH]1)C(=O)N[C@@H](CC(N)=O)C(=O)N[C@@H](Cc1ccccc1)C(=O)O)C(C)C)C(C)C` [Forteo, teriparatide (rDNA origin)], in series [3], the “Bone strengthening effect compared with Fosamax” value is listed as “stronger bone strengthening effect than Fosamax”.

The record behind these values is patent US20120252729A1, “PTH-CONTAINING THERAPEUTIC/PROPHYLACTIC AGENT FOR OSTEOPOROSIS, CHARACTERIZED IN THAT PTH IS ADMINISTERED ONCE A WEEK IN A UNIT DOSE OF 100 TO 200 UNITS” (ASAHI KASEI PHARMA CORPORATION, priority 2009, published 2012).
